# Laboratory results: PMC6017932, “Synthesis of Selenium-Quinone Hybrid Compounds with Potential Antitumor Activity via Rh-Catalyzed C-H Bond Activation and Click Reactions” (Molecules : A Journal of Synthetic Chemistry and Natural …, 2017)
# Legend:
# [1] = system: HL-60 (human promyelocytic leukemia cells); test: MTT cytotoxicity, HL-60 cells; format: cell-based; conditions: Homo sapiens, HL-60, 72 h exposure, three independent experiments, read-out: Cytotoxic activity IC50 (95% CI) HL-60
# Protocol: (§1) Compounds were evaluated for antitumor activity in cell culture in vitro using several human cancer cell lines obtained from the National Cancer Institute, NCI (Bethesda, MD, USA). […] The L929 cells were cultivated under standard conditions in DMEM with Earle’s salts. […] At the end of the incubation time (72 h), the plates were centrifuged and the medium was replaced by fresh medium (200 μL) containing 0.5 mg/mL MTT. After 3 h, the MTT formazan product was dissolved in DMSO (150 μL) and the absorbance was measured using a multiplate reader (Spectra Count, Packard, ON, Canada). The impact of compounds on cell proliferation was quantified as the percentage of control absorbance of the reduced dye at 550 nm. All cell culture based studies were performed in triplicate. All cells were mycoplasma-free.
# [2] = system: HCT-116 (human colon carcinoma cells); test: MTT cytotoxicity, HCT-116 cells; format: cell-based; conditions: Homo sapiens, HCT-116, 72 h exposure, three independent experiments, read-out: Cytotoxic activity IC50 (95% CI) HCT-116
# Protocol: as §1
# [3] = system: SF295 (human glioblastoma cells); test: MTT cytotoxicity, SF295 cells; format: cell-based; conditions: Homo sapiens, SF-295, 72 h exposure, three independent experiments, read-out: Cytotoxic activity IC50 (95% CI) SF295
# Protocol: as §1
# [4] = system: NCIH-460 (human lung cells); test: MTT cytotoxicity, NCIH-460 cells; format: cell-based; conditions: Homo sapiens, NCI-H460, 72 h exposure, three independent experiments, read-out: Cytotoxic activity IC50 (95% CI) NCIH-460
# Protocol: as §1
# [5] = system: PC3 (human prostate cancer cells); test: MTT cytotoxicity, PC3 cells; format: cell-based; conditions: Homo sapiens, PC-3, 72 h exposure, three independent experiments, read-out: Cytotoxic activity IC50 (95% CI) PC3
# Protocol: as §1
# [6] = MTT cytotoxicity, L929 normal cells; format: cell-based, mouse; conditions: mouse, normal cell line, 72 h exposure, three independent experiments, read-out: Cytotoxic activity IC50 (95% CI) L929
# Protocol: as §1
SMILES,melting point [°C],IC50 [1] [µM],IC50 [2] [µM],IC50 [3] [µM],IC50 [4] [µM],IC50 [5] [µM],IC50 at 72 h [6] [µM]
"O=C1C=C([Se]c2ccccc2)C(=O)c2ccccc21 [Compound 2, 2-(Phenylselanyl)naphthalene-1,4-dione]",,1.96,> 10,> 10,> 10,> 10,> 10
"COc1ccc([Se]C2=CC(=O)c3ccccc3C2=O)cc1 [Compound 3, 2-((4-Methoxyphenyl)selanyl)naphthalene-1,4-dione]",140.7 to 148.3,4.68,> 10,> 10,> 10,> 10,> 10
"O=C1C=C([Se]c2ccc(Cl)cc2)C(=O)c2ccccc21 [Compound 4, 2-((4-Chlorophenyl)selanyl)naphthalene-1,4-dione]",154.8 to 155.7,2.25,> 10,> 10,> 10,> 10,> 10
"O=C1C=C([Se]c2ccc(F)cc2)C(=O)c2ccccc21 [Compound 5, 2-((4-Fluorophenyl)selanyl)naphthalene-1,4-dione]",139.2 to 139.9,2.16,> 10,> 10,> 10,> 10,> 10
"COC1=C(CN=[N+]=[N-])C(=O)c2ccccc2C1=O [Compound 8, 2-(Azidomethyl)-3-methoxynaphthalene-1,4-dione]",,> 10,> 10,> 10,> 10,> 10,> 10
"COC1=C(Cn2cc(-c3ccccc3)nn2)C(=O)c2ccccc2C1=O [Compound 9, 2-Methoxy-3-((4-phenyl-1H-1,2,3-triazol-1-yl)methyl)naphthalene-1,4-dione]",103.8 to 104.7,5.39,> 10,> 10,> 10,> 10,> 10
"COC1=C(Cn2cc(C[Se]c3ccc(OC)cc3)nn2)C(=O)c2ccccc2C1=O [Compound 15, 2-Methoxy-3-((4-(((4-methoxyphenyl)selanyl)methyl)-1H-1,2,3-triazol-1-yl)methyl)naphthalene-1,4-dione]",,> 10,> 10,> 10,> 10,> 10,> 10
"COc1cccc2c1C(=O)c1c(O)c3c(c(O)c1C2=O)C[C@@](O)(C(=O)CO)C[C@@H]3O[C@H]1C[C@H](N)[C@H](O)[C@H](C)O1 [DOXO, Doxorubicin, reference compound]",,0.02,0.21,,,0.76,1.72

# Now from value to compound, other results behind:
melting point [°C],SMILES,IC50 [1] [µM],IC50 [2] [µM],IC50 [3] [µM],IC50 [4] [µM],IC50 [5] [µM],IC50 at 72 h [6] [µM]
205.8 to 206.7,"COC1=C(Cn2cc(-c3ccc([N+](=O)[O-])cc3)nn2)C(=O)c2ccccc2C1=O [Compound 10, 2-Methoxy-3-((4-(4-nitrophenyl)-1H-1,2,3-triazol-1-yl)methyl)naphthalene-1,4-dione]",> 10,> 10,> 10,> 10,> 10,> 10
149.3 to 150.7,"COC1=C(Cn2cc(-c3ccc(OC)cc3)nn2)C(=O)c2ccccc2C1=O [Compound 11, 2-Methoxy-3-((4-(4-methoxyphenyl)-1H-1,2,3-triazol-1-yl)methyl)naphthalene-1,4-dione]",2.32,> 10,> 10,> 10,> 10,> 10
123.1 to 124.5,"COC1=C(Cn2cc(-c3ccc(C)cc3)nn2)C(=O)c2ccccc2C1=O [Compound 12, 2-Methoxy-3-((4-(p-tolyl)-1H-1,2,3-triazol-1-yl)methyl)naphthalene-1,4-dione]",> 10,> 10,> 10,> 10,> 10,> 10
174.1 to 175,"COC1=C(Cn2cc(-c3ccc(Br)cc3)nn2)C(=O)c2ccccc2C1=O [Compound 13, 2-((4-(4-Bromophenyl)-1H-1,2,3-triazol-1-yl)methyl)-3-methoxynaphthalene-1,4-dione]",> 10,> 10,> 10,> 10,> 10,> 10
69 to 71,"COC1=C(Cn2cc(C[Se]c3ccccc3)nn2)C(=O)c2ccccc2C1=O [Compound 14, 2-Methoxy-3-((4-((phenylselanyl)methyl)-1H-1,2,3-triazol-1-yl)methyl)naphthalene-1,4-dione]",> 10,> 10,> 10,> 10,> 10,> 10
185.3 to 187.1,"CC1(C)OC2=C(C(=O)C(=O)c3ccccc32)C(n2cc(C[Se]c3ccc(Cl)cc3)nn2)C1Br (stereo not drawn) [Compound 17, 3-Bromo-4-(4-(((4-chlorophenyl)selanyl)methyl)-1H-1,2,3-triazol-1-yl)-2,2-dimethyl-3,4-dihydro-2H-benzo[h]chromene-5,6-dione]",0.81,> 8,2.6,2.06,2.03,0.52
187.1 to 190,"CC1(C)OC2=C(C(=O)C(=O)c3ccccc32)C(n2cc(C[Se]c3ccc(F)cc3)nn2)C1Br (stereo not drawn) [Compound 18, 3-Bromo-4-(4-(((4-fluorophenyl)selanyl)methyl)-1H-1,2,3-triazol-1-yl)-2,2-dimethyl-3,4-dihydro-2H-benzo[h]chromene-5,6-dione]",0.59,0.37,1.48,1.32,1.06,0.36
113.5 to 114.6,"COc1ccc([Se]Cc2cn(C3C4=C(OC(C)(C)C3Br)c3ccccc3C(=O)C4=O)nn2)cc1 (stereo not drawn) [Compound 19, 3-Bromo-4-(4-(((4-methoxyphenyl)selanyl)methyl)-1H-1,2,3-triazol-1-yl)-2,2-dimethyl-3,4-dihydro-2H-benzo[h]chromene-5,6-dione]",1.28,> 8,1.75,2.33,1.55,0.68
104.3 to 108.6,"CC1(C)OC2=C(C(=O)C(=O)c3ccccc32)C(n2cc(C[Se]c3cccs3)nn2)C1Br (stereo not drawn) [Compound 22, 3-Bromo-2,2-dimethyl-4-(4-((thiophen-2-ylselanyl)methyl)-1H-1,2,3-triazol-1-yl)-3,4-dihydro-2H-benzo[h]chromene-5,6-dione]",0.53,> 8,2.13,2.75,2.47,3.16
123.1 to 124.4,"CCCC[Se]Cc1cn(C2C3=C(OC(C)(C)C2Br)c2ccccc2C(=O)C3=O)nn1 (stereo not drawn) [Compound 23, 3-Bromo-4-(4-((butylselanyl)methyl)-1H-1,2,3-triazol-1-yl)-2,2-dimethyl-3,4-dihydro-2H-benzo[h]chromene-5,6-dione]",0.71,0.97,3.43,2.64,1.64,2.12
